Like-named read-outs stand apart in the source and are kept apart here.
Experiments:
[1] = target: T1, CCK receptors of rat pancreas (Rattus norvegicus, UniProt P30551); assay: Inhibition of binding of sulphated [125I]-CCK8 to receptors of rat pancreas plasma membranes; conditions: for ratio of the IC50 for the brain receptors to the IC50 for the pancreas receptors: guinea-pig brain / rat pancreas
T1 construct: of rat pancreas plasma membranes; from tissue; host or cells: rat pancreas plasma membranes (SD50 males; animals from IFFA CREDO)
T1 sequence (P30551 1-444): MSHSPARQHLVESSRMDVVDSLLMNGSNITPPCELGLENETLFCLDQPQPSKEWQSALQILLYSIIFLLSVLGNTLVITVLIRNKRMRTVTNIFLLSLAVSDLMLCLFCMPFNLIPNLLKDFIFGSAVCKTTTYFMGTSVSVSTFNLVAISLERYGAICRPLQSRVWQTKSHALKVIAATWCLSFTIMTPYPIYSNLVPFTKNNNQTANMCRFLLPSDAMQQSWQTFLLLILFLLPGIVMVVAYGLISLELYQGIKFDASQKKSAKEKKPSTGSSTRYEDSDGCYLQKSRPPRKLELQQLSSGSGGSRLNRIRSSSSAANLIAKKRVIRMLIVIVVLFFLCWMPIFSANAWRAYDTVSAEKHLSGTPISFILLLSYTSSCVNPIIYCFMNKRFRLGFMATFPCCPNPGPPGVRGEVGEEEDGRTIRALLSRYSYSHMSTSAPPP
Source text: of rat pancreas plasma membranes (SD50 males, IFFA CREDO, 200-225 g)

[2] = target: T2, CCK receptors of guinea-pig brain (Cavia porcellus, UniProt H0VZC5); assay: Inhibition of binding of sulphated [125I]-CCK8 to receptors of guinea-pig brain membranes
T2 construct: of guinea-pig brain membranes; from tissue; host or cells: guinea-pig brain membranes (males; animals from COB LABO)
T2 sequence (H0VZC5 1-426): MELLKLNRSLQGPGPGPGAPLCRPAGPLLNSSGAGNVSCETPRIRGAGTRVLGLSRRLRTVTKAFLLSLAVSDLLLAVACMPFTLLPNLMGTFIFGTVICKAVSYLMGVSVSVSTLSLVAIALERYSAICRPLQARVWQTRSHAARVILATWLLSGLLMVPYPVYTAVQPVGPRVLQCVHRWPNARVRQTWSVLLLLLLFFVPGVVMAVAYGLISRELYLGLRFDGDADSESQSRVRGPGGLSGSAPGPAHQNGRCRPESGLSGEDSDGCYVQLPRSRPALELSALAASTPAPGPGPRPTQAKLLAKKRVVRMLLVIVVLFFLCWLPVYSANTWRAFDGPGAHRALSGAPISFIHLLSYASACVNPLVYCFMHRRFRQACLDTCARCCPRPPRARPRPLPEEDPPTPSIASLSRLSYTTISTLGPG
Source text: of guinea-pig brain membranes (males, COB LABO, 325-350 g) according to the protocol described by INNIS R. B. and SNYDER S. M., Eur. J. Pharmacol., 65, 123-124, 1980.

[3] = system: inhibition of gastric emptying caused by sulphated CCK-8; assay: Gastric emptying model in mice: antagonism of the inhibition of gastric emptying caused by sulphated CCK-8; format: in vivo, mice (SWISS male); conditions: Mus musculus, sulphated CCK-8 80 μg/kg, sc
[4] = Acute toxicity; conditions: mouse, in vivo, male mice
[5] = IRWIN's tests (behavior); conditions: for IRWIN (first dose modifying one of the parameters of behavior): male mice; for selectivity ratio: mouse, in vivo
Method: The acute toxicity was evaluated and IRWIN's tests (IRWIN S., Psychopharmacologia, 13, 222-257, 1968) were performed in male mice (20-21 g).

[6] = guinea-pig brain membranes, read-out: Binding (IC50) [125I]-CCK8-SO4 Brain

SMILES	IC50 [1] [nM]	ratio of the IC50 for the brain receptors to the IC50 for the pancreas receptors [1]	IC50 [2, 6] [nM]	IC50 [2] [nM]	ED50 [3] [mg/kg]	LD50 [4] [mg/kg]	IRWIN (first dose modifying one of the parameters of behavior) [5] [mg/kg]	selectivity ratio [5]
O=C(NC1N=C(c2ccccc2F)c2cc(Cl)cc3c2N(CC3)C1=O)c1cc2cc(Cl)ccc2[nH]1 (centres unmarked) [Il, 8-chloro-4-[(5-chloro-2-indolyl)carbonylamino]-6-(2-fluorophenyl)-1,2,3,4-tetrahydropyrrolo[3,2,1-jk][1,4]benzodiazepin-3-one]	12.3	2552.2	21400					
O=C(NC1N=C(c2ccccc2)c2cccc3c2N(CCC3)C1=O)c1cc2ccccc2[nH]1 (centres unmarked) [In, 5-(2-indolylcarbonylamino)-7-phenyl-1,2,3,3a,4,5-hexahydropyrido[3,2,1-jk][1,4]benzodiazepin-4-one]	3.9	104.4		407				
O=C(NC1N=C(c2ccccc2)c2cccc3c2N(CC3)C1=O)c1cc2ccccc2[nH]1 (centres unmarked) [Ia, 4-(indol-2-ylcarbonylamino)-phenyl-6-tetrahydro-1,2,3,4-pyrrolo[3,2,1-jk][1,4]benzodiazepin-3-one]	5.3	209.4		1110	0.104	> 1000	> 1000	> 7600
O=C(NC1N=C(c2ccccc2)c2cccc3c2N(CC3)C1=O)c1ccc(Cl)cc1 (centres unmarked) [Ib, 4-(4-Chlorobenzoylamino)-6-phenyl-1,2,3,4-tetrahydropyrrolo-[3,2,1-jk]benzodiazepin[1,4]-3-one]	37	83.8	3100					
O=C(NC1N=C(c2ccccc2F)c2cc(Cl)cc3c2N(CC3)C1=O)c1cc(Cl)cc(Cl)c1 (centres unmarked) [Im, 8-chloro-4-(3,5-dichlorobenzoylamino)-6-(2-fluorophenyl)-1,2,3,4-tetrahydropyrrolo[3,2,1-jk][1,4]benzodiazepin-3-one]	30.6	831.1	25400					
O=C(N[C@H]1N=C(c2ccccc2)c2cccc3c2N(CC3)C1=O)c1cc2ccccc2[nH]1 [Ie, (-)-(4S)-4-(2-Indolylcarbonylamido)-6-phenyl-1,2,3,4-tetrahydropyrrolo[3,2,1-jk][1,4]benzodiazepin-3-one]	1.5	318.0		477	0.087	> 1000	> 1000	> 11000
O=C(N[C@@H]1N=C(c2ccccc2)c2cccc3c2N(CC3)C1=O)c1cc2ccccc2[nH]1 [If, (+)-(4R)-4-(2-Indolycarbonylamino)-6-phenyl-1,2,3,4-tetrahydropyrrolo[3,2,1-jk][1,4]benzodiazepin-3-one]	8640	2.8		24000				
O=C(NC1N=C(c2ccccc2F)c2cccc3c2N(CC3)C1=O)c1cc2ccccc2[nH]1 (centres unmarked) [Ig]	0.023	15913		366	0.076	> 1000	> 300	> 3900
CN1C(=O)C(NC(=O)c2cc3ccccc3[nH]2)N=C(c2ccccc2)c2ccccc21 (racemic) [IIa, reference compound]					0.05	> 600		
O=C(NC1N=C(c2ccccc2)c2cccc3c2N(CC3)C1=O)c1cccc(I)c1 (centres unmarked) [Ic, 4-(3-Iodobenzoylamino)-6-phenyl-1,2,3,4-pyrrolo[3,2,1-j,k][1,4]benzodiazepin-3-one]	45	195.6	8800					

Source: US4929614A, “Benzodiazepines, process and intermediates for the preparation thereof and their application in therapy” (Jouveinal S.A., priority 1988, dated 1990)
